This note sets out measurements from ChEMBL document CHEMBL1201862, “PubChem BioAssay data set” (2004).

Among the test systems are EKVX; OVCAR-4; OVCAR-8; U-251; IGROV-1; SNB-19; UACC-257; RXF 393; SF-295; SF-539; 786-0; ACHN; HOP-62; CAKI-1; NCI-H23; OVCAR-5.
Assay in all cases: NCI-60 cell line screen, 48 h

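A five-concentration, 48-hour dose response in 96-well plates underlies each endpoint, interpolated linearly between surrounding concentrations. GI50 is the concentration that inhibits growth by half.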 Calls of active or inactive are those of the source. Rule as the data show it: active = GI50 up to about 1.1 µM and inactive = higher.

Take `COc1ccc(/C(=C\c2cc(OC)c(OC)c(OC)c2)C(=O)O)cc1`: the GI50 was 57 µM (inactive) in the experiment with EKVX; 85.7 µM (inactive) in the experiment with OVCAR-4; 33.5 µM (inactive) with OVCAR-8; 44.6 µM (inactive) in the experiment on U-251; 48.4 µM (inactive) in the experiment on IGROV-1; 54.2 µM (inactive) with SNB-19. In addition, the GI50 is 61 µM (inactive) in the experiment on UACC-257; 18.8 µM (inactive) in the experiment on RXF 393; 19.9 µM (inactive) with SF-295; 14.2 µM (inactive) in the experiment on SF-539; 38 µM (inactive) in the experiment on 786-0; 72.8 µM (inactive) in the experiment with ACHN. Besides, the results for the GI50 in the experiment with HOP-62 and in the experiment with CAKI-1 were 37.1 µM (inactive) and 30.4 µM (inactive), respectively.

Regarding `CC1=N/C(=C\c2ccc(/C=C3/N=C(C)OC3=O)cc2)C(=O)O1`, the GI50 with OVCAR-4, with OVCAR-8, in the experiment with U-251, with IGROV-1, with NCI-H23 and with SNB-19 was > 100 µM (inactive) throughout. For the same molecule, the GI50 in the experiment on UACC-257, in the experiment with RXF 393, with SF-539, with 786-0, with ACHN and in the experiment with HOP-62 was > 100 µM (inactive) in each case. For the same molecule, the GI50 in the experiment on OVCAR-5 was > 10 µM (inactive); in the experiment on CAKI-1, > 100 µM (inactive).

In the case of `Cc1ccc(-c2cc(-c3ccccc3)c(C#N)c(=O)n2C2OC(CO)C(O)C(O)C2O)cc1` (centres undefined), the GI50 in the experiment on EKVX, in the experiment with OVCAR-4, in the experiment with OVCAR-8, in the experiment on U-251, in the experiment on IGROV-1 and with NCI-H23 was > 100 µM (inactive) each time. Further, the GI50 in the experiment on SNB-19, in the experiment on UACC-257, with RXF 393, with SF-295, with SF-539 and in the experiment on 786-0 was > 100 µM (inactive) each time. For the same molecule, the GI50 in the experiment with ACHN, in the experiment on HOP-62 and in the experiment with OVCAR-5 was > 100 µM (inactive) each time.

As for `OCC(O)C(OC1OC(CO)C(O)C(O)C1O)c1nn(-c2ccccc2)c2nc3cc(Cl)c(Cl)cc3cc12` (centres undefined), the GI50 in the experiment on EKVX, in the experiment on OVCAR-4, in the experiment on OVCAR-8, in the experiment with U-251, in the experiment on NCI-H23 and with SNB-19 was > 100 µM (inactive) throughout. Moreover, the GI50 in the experiment with UACC-257, with RXF 393, with SF-295, in the experiment on SF-539, in the experiment on 786-0 and with ACHN was > 100 µM (inactive) in each case. The GI50 in the experiment on HOP-62 and in the experiment with OVCAR-5 was > 100 µM (inactive) each time.

As for `CCN(CC)C(=O)CCn1cc(F)c(=O)[nH]c1=O`, the GI50 in the experiment on EKVX, in the experiment on OVCAR-4, in the experiment with OVCAR-8, with U-251, with IGROV-1 and in the experiment on NCI-H23 was > 100 µM (inactive) throughout. Besides, the GI50 in the experiment with SNB-19, with RXF 393, in the experiment with SF-295, in the experiment on SF-539, in the experiment on 786-0 and with ACHN was > 100 µM (inactive) each time. Further, the GI50 in the experiment with HOP-62 and in the experiment with OVCAR-5 was > 100 µM (inactive) throughout.

As for `COc1c(C)c2c(c3c1c(=O)c1ccccc1n3C)C=CC(C)(C)O2`, the GI50 was 47.1 µM (inactive) with EKVX; 25.6 µM (inactive) with OVCAR-8; 21.8 µM (inactive) in the experiment with U-251; 30.3 µM (inactive) in the experiment with IGROV-1; 27.1 µM (inactive) in the experiment on NCI-H23; 41.3 µM (inactive) in the experiment on SNB-19. For the same molecule, the GI50 in the experiment on UACC-257 is 28.9 µM (inactive); in the experiment with RXF 393, 51.5 µM (inactive); in the experiment on SF-295, 17.9 µM (inactive); in the experiment with SF-539, 19.3 µM (inactive); with 786-0, 23.4 µM (inactive); in the experiment with ACHN it was 20.6 µM (inactive). The results for the GI50 with HOP-62, in the experiment on OVCAR-5 and in the experiment on CAKI-1 were 27.2 µM (inactive), 29.2 µM (inactive) and 26.2 µM (inactive), respectively.

Take `N#Cc1ccccc1NC(=O)/C(=N\N)C(C(=O)c1ccncc1)C1OC(=O)c2ccccc21` (centres undefined): the GI50 with EKVX, with OVCAR-4, in the experiment with OVCAR-8, in the experiment with U-251, in the experiment on IGROV-1 and with NCI-H23 was > 100 µM (inactive) throughout. Also, the GI50 in the experiment with SNB-19, in the experiment on UACC-257, with SF-295, in the experiment on SF-539, with 786-0 and with ACHN was > 100 µM (inactive) in each case. The GI50 with HOP-62 and in the experiment on OVCAR-5 was > 100 µM (inactive) in each case.

As for `CCCCCCCCCCCCCP(=O)(O)O`, the GI50 in the experiment on EKVX was > 100 µM (inactive); with OVCAR-4 it was > 100 µM (inactive); in the experiment with OVCAR-8 it was > 100 µM (inactive); with U-251, 45.2 µM (inactive); in the experiment with IGROV-1, > 100 µM (inactive); in the experiment with NCI-H23, > 100 µM (inactive). Besides, the GI50 in the experiment on SNB-19 was 67.1 µM (inactive); in the experiment on UACC-257, > 100 µM (inactive); with RXF 393, 35.5 µM (inactive); in the experiment with SF-295, > 100 µM (inactive); with SF-539, > 100 µM (inactive); in the experiment on 786-0 it was > 100 µM (inactive). Besides, the GI50 in the experiment with ACHN, in the experiment with HOP-62 and in the experiment on OVCAR-5 was > 100 µM (inactive) each time.

Take `CCN(CC)CCN(C)CC(C)(C)C(=O)/C=C/c1ccccc1`: the GI50 is 13.1 µM (inactive) in the experiment on EKVX; 11.4 µM (inactive) in the experiment on OVCAR-4; 15.8 µM (inactive) in the experiment on OVCAR-8; 10.4 µM (inactive) with U-251; 16.7 µM (inactive) with IGROV-1; 12.6 µM (inactive) in the experiment on NCI-H23. The GI50 was 15.1 µM (inactive) in the experiment with SNB-19; 11.7 µM (inactive) with UACC-257; 15 µM (inactive) in the experiment on SF-295; 5.01 µM (inactive) in the experiment on SF-539; 15.8 µM (inactive) in the experiment on 786-0; 12.6 µM (inactive) in the experiment with ACHN. For the same molecule, the figures for the GI50 in the experiment with HOP-62, with OVCAR-5 and with CAKI-1 were 22.1 µM (inactive), 14 µM (inactive) and 11.8 µM (inactive), respectively.

Regarding `CNC(=S)NC(=S)N(C)C`, the GI50 in the experiment with EKVX was > 100 µM (inactive); in the experiment on OVCAR-4, > 100 µM (inactive); in the experiment with OVCAR-8 it was 4.94 µM (inactive); in the experiment with U-251, > 100 µM (inactive); with IGROV-1, > 100 µM (inactive); with NCI-H23 it was 0.692 µM (active). Besides, the GI50 in the experiment with SNB-19, in the experiment with UACC-257, in the experiment on RXF 393, in the experiment on SF-295, in the experiment with SF-539 and with 786-0 was > 100 µM (inactive) each time. For the same molecule, the GI50 in the experiment with ACHN, with HOP-62 and with CAKI-1 was > 100 µM (inactive) throughout.

As for `CCOC(=O)C1=C(C)C2C3C(=O)NC(=O)C3C1(C)C1C(=O)NC(=O)C21` (centres undefined), the GI50 with EKVX, with OVCAR-4, with OVCAR-8, with U-251, with IGROV-1 and with NCI-H23 was > 100 µM (inactive) throughout. Moreover, the GI50 in the experiment with SNB-19, in the experiment with UACC-257, in the experiment on RXF 393, in the experiment with SF-295, with SF-539 and with 786-0 was > 100 µM (inactive) in each case. The GI50 in the experiment with ACHN and with HOP-62 was > 100 µM (inactive) throughout.

In the case of `COC(=O)[C@]1(C)CCC[C@]2(C)C3CC4OOC3(C=C4C(C)(C)O)CCC21` (some centres undefined), the GI50 is 75.2 µM (inactive) in the experiment on EKVX; 72.9 µM (inactive) in the experiment on OVCAR-4; 34.6 µM (inactive) with OVCAR-8; > 100 µM (inactive) in the experiment on U-251; 72.4 µM (inactive) in the experiment on IGROV-1; 94 µM (inactive) in the experiment with NCI-H23. For the same molecule, the GI50 with SNB-19 is > 100 µM (inactive); in the experiment with UACC-257, 80.5 µM (inactive); in the experiment with SF-295, 95.9 µM (inactive); in the experiment with SF-539, > 100 µM (inactive); in the experiment on 786-0 it was 30.1 µM (inactive); in the experiment on ACHN, 47.8 µM (inactive). Moreover, the GI50 with HOP-62 was > 100 µM (inactive); in the experiment on OVCAR-5 it was > 100 µM (inactive); in the experiment with CAKI-1 it was 64.6 µM (inactive).

As to `O=C(CCc1cc(-c2ccc(F)cc2)n[nH]1)N(Cc1ccccc1)Cc1ccccc1`, the GI50 with EKVX, with OVCAR-8, in the experiment on U-251, in the experiment with IGROV-1, with NCI-H23 and in the experiment with SNB-19 was > 100 µM (inactive) throughout. In addition, the GI50 in the experiment with UACC-257, with RXF 393, in the experiment on SF-295, in the experiment with SF-539, with 786-0 and in the experiment on ACHN was > 100 µM (inactive) each time. Moreover, the GI50 in the experiment on HOP-62, in the experiment with OVCAR-5 and with CAKI-1 was > 100 µM (inactive) in each case.
